Structures can show the parent of a compound that is named as a salt. Where a SMILES comes first, the peptide text is derived from it. The star is where a group is joined. Cbz = O=C(OCc1ccccc1)*; CH2F = FC*
Tests used:
Assay type in all cases: cell-based
[1] = tested on: U87 cells; assay: Viability rescue with caspase inhibitor Z-VAD-FMK
Description: For viability assays (performed in 6-well plates), cells were harvested using trypsin (0.5 ml per well) and the media were saved from each well. The saved media was re-suspended with the trypsinised cells and 2-3 aliquots (50 μL each) of this suspension were taken into a 96-well plates. CellTiter-Glo™ (CTG) Luminescent Viability assay was used to measure the viability of these aliquots. CTG-media mixture (150 μL) were added to each well. The rest of the culture was used to extract protein. The viability of cells was measured using the 1:1 dilution of the CellTiter-Glo™ Luminescent reagent (Promega™, cat #G7573) with media, which was read on Victor™ 5 plate reader after 10 minutes of shaking at room temperature. The intensity of luminescence was normalized to that of the DMSO (Sigma™, D5879) control.
To confirm that cells undergo non-apoptotic death, apoptosis was blocked with a broad caspase inhibitor Z-VAD-FMK upon C9 KD. […] Additionally, the apoptosis inducer, staurosporine (STS), was used to asses Z-VAD-FMK efficacy. […] A beta galactosidase staining technique was used to asses senescence upon C9 KD. […] See FIG. 20, for which U87 cells were treated with control (siCtrl) and C9 (siC9; SEQ ID NO:631) siRNA and then subjected to β-Galactosidase Staining.

[2] = tested on: U87 cells; assay: TUNEL assay for DNA breaks; conditions: vs control
Description: Cells were treated with control and C9 siRNA for three days. On day three, cells were collected for TUNEL assay using the FlowTACS kit (TREVIGEN™, 4817-60-K) according to manufacturer's instructions to detect DNA fragmentation. For a positive control, DNA damage was induced using doxorubicin. Data were collected on a FACSCalibur™ flow cytometer (Becton Dickinson™) and data analysis performed on FlowJo™.
ROS can cause oxidative DNA damage. Since elevated ROS levels were observed under C9 KD conditions, it may cause increase in DNA damage. To test this hypothesis, a TUNEL assay was used to measure DNA breaks. […] In addition to C9KD, U87 cells were treated with a known chemotherapeutic DNA damage-inducing drug to serve as a positive control for DNA damage (see FIG. 23). FIG. 23 presents data for the TUNEL assay of U87 cells treated as described for FIG. 21 and for positive DNA-damage control with 0.5 μM doxorubicin (DOX). FIG. 23A presents data for the percentage of cells with DNA fragmentation (shown by DNA damage) comparing control (siCtrl) C9 KD (siC9; SEQ ID NO:631) and DOX-treated cells as measured by FACS analysis. […] FIG. 24 is a set of graphs showing data for cells treated as described for FIG. 23, with the exception of using a different C9 siRNA, indicated as siC9 #2 (SEQ ID NO:633).

[3] = tested on: p53; assay: Western blot of phospho-p53, p53 and p21; conditions: U87 cells
Description: For Western blot analysis, cells were lysed with lysis buffer (20 mM sodium phosphate (pH 7.0), 250 mM NaCl, 30 mM sodium pyrophosphate, 0.1% Nonidet™ P-40, 5 mM EDTA, 10 mM NaF, 0.1 mM Na3VO4, and 1 mM PMSF) supplemented with complete protease inhibitors (Roche™) and homogenized by passage through a 28 gauge needle. Protein concentration was measured with a Bio-Rad™ protein assay dye reagent and results were read using a spectrophotometer (BiophotometerPlus™ by Eppendorf™). Protein extracts were resolved by SDS PAGE on gradient (Thermo Fisher™) or 12% gels. Proteins were then electrotransferred at 350 mA for 80 minutes onto a PVDF membrane (Immobilon-P PVDF). Membranes were blocked with PBST with 5% milk and 1% BSA for 30 minutes. Quantitation of blots was performed Image Studio Lite software (LI-COR Biosciences™).
One of the responses to DNA damage is activation of p53 by ATM. Upon DNA damage, ATM activation leads to p53 phosphorylation, which activates p53 as a transcription factor. Since increased DNA damage was observed upon C9 KD, whether p53 is activated in C9 depleted cells was investigated. First, total p53 levels were measured in U87 cells treated with control and two independent siRNAs against C9. […] Then, the levels of phosphorylated (active) p53 (at s15) was measured. Phosphorylation of s15 on p53 was increased in both C9 siRNA samples.

[4] = tested on: U87 cells; assay: Macropinocytosis inhibition with EIPA; conditions: C9 KD U87 cells, 20 μM EIPA vs DMSO
Description: Cell were treated with control and C9 siRNA. After 6 hours, media were replaced and control and siC9 cells were either treated with DMSO or with 20 μM 5-(N-Ethyl-N-isopropyl) amiloride (Sigma™, A3085). After 3 days, cells were then imaged using Nikon Eclipse™ Ts2-FL Inverted Fluorescence Microscope and vacuoles from images were quantitated using ImageJ™.
In another study to further confirm the macropinocytotic origin of the vacuoles, 5-(N-ethyl-N-isopropyl) amiloride (EIPA), a macropinocytosis inhibitor was used.
FIG. 9 presents phase contrast images (40×) of U87 cells treated with control or C9 siRNA (SEQ ID NO;631) and incubated in DMSO (siCtrl+DMSO and siC9+DMSO, respectively) or in 20 μM Amiloride (siCtrl+EIPA 20 μM and siC9+EIPA 20 μM, respectively). The scale bar represents 10 μm. WB on the right represents C9 KD efficiency in EIPA treated U87 cells. […] Statistical significance was assessed by an unpaired t-test: NS P>0.05, *P≤0.05, **P≤0.01, ***P≤0.001 ****P≤0.0001.

[5] = tested on: U87 cells; assay: RAC1 inhibition with NSC23766, vacuoles per cell; conditions: C9 KD U87 cells, 100 μM NSC23766 vs DMSO, 3 days
Description: Macropinocytosis is known to depends on RAC1 activation which induces membrane ruffling (through actin rearrangement) that mature into macropinosomes. If the accumulated vacuoles are of macropinocytotic origin, then inhibition of RAC1 should rescue their accumulation. To test this, cells were treated with control or C9 siRNA in combination with NSC23766 (NSC), a RAC1 inhibitor.
FIG. 11A, FIG. 11B, FIG. 11C and FIG. 11D are a set of phase contrast images (20×) of U87 cells treated with control or C9 siRNA (SEQ ID NO:631) and incubated in DMSO (siCtrl+DMSO and siC9+DMSO, respectively) or in 100 μM RAC1 inhibitor NSC23766 (siCtrl+NSC and siC9+NSC, respectively). The scale bar represents 10 μm. […] FIG. 12 is a graph representing quantitation of the data for U87 cells treated with control (n=76) siRNA and DMSO (blue dots), U87 cells treated with C9 siRNA (n=41) with DMSO (red squares), U87 cells treated with control (n=74) siRNA and 100 μm of NSC (green dots), and U87 cells treated with C9 siRNA (n=73) with 100 μm of NSC (purple dots). Statistical significance was assessed by an unpaired t-test: NS P>0.05, *P≤0.05, **P≤0.01, ***P≤0.001 ****P≤0.0001.

[6] = tested on: p53; assay: p53 western blot in p53 null U87 cells treated with doxorubicin; conditions: p53 null U87 cells (KO #4)
Description: To generate p53 knockout clones, U87 cells (7×10^5) were transfected with 2 μg p53 CRISPR/Cas9 KO plasmid (Santa Cruz Biotech™, sc-416469) using Lipofectamine 2000 (ThermoFisher™). Two days later, cells were treated with Nutlin-3 (10 μM) for 12 days to inhibit proliferation of cells with wild type p53, thereby enriching for p53 knockout cells. Single-cell clones were selected via limiting dilution, and p53 knockout clones were confirmed by western blotting using p53 antibody (FL-393).
To further validate the dependency of vacuolization on p53, two p53 null cell lines were generated using CRISPR. First, the cells lack of p53 was validated by treating them doxorubicin, […]. […] See FIG. 31, which is a WB showing p53 levels in wtp53 U87 (WT p53) cells and in p53 null U87 cells treated with DMSO (KO #4+DMSO) or DOX (KO #4+DOX).

Compound: COC(=O)C[C@H](NC(=O)[C@H](C)NC(=O)[C@@H](NC(=O)OCc1ccccc1)C(C)C)C(=O)CF [Z-VAD-FMK] (Cbz-Val-Ala-Asp(OMe)-CH2F)
- rescue of cell viability ([1]; C9 KD U87 cells): did not significantly rescue
- rescue of cell viability ([1]; staurosporine (STS) treated U87 cells): able rescue viability

Compound: siC9 #2: siRNA targeting C9 mRNA: GCACAUAUGGACUAUCAAUtt (SEQ ID NO:633; sense) and AUUGAUAGUCCAUAUGUGCtg (SEQ ID NO:634; antisense) (sense GCACAUAUGGACUAUCAAUTT; antisense AUUGAUAGUCCAUAUGUGCTG; chemistry not given here)
- DNA breaks (TUNEL) [2]: increase in DNA breaks
- p21 protein levels [3]: increased p21 protein levels
- phosphorylation of s15 on p53 [3]: increased
- total p53 levels [3]: elevates p53 levels

Compound: CCN(c1nc(N)c(C(=O)NC(=N)N)nc1Cl)C(C)C [EIPA, 5-(N-ethyl-N-isopropyl) amiloride]
- vacuole formation [4]: significant inhibition of vacuole formation

Compound: CCN(CC)CCCC(C)Nc1nc(C)cc(Nc2ccc3nc(C)cc(N)c3c2)n1 (stereo not drawn) [NSC23766]
- vacuoles per cell [5]: significant drop in vacuoles

Compound: COc1cccc2c1C(=O)c1c(O)c3c(c(O)c1C2=O)C[C@@](O)(C(=O)CO)C[C@@H]3O[C@H]1C[C@H](N)[C@H](O)[C@H](C)O1 [doxorubicin, Doxorubicin hydrochloride]
- p53 accumulation [6]: did not induce p53 accumulation
